{
  "source": "patent US11046716B2",
  "about": "“Beta-lactamase inhibitors” (priority 2015, dated 2021)",
  "key": {"SHV-5": {"molecular_target": "T1, SHV-5 (Klebsiella pneumoniae, UniProt P0A3M1)", "T1 construct": "made in house; host or cells: E. coli BL21(DE3)", "T1 sequence (P0A3M1 22-286)": "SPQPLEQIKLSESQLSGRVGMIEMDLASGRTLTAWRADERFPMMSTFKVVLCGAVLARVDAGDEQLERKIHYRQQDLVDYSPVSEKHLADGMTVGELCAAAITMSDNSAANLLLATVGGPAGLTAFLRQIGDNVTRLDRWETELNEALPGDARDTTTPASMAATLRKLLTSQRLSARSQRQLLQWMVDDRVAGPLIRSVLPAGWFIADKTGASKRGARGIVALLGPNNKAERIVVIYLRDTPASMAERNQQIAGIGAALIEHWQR", "assay": "β-lactamase enzyme inhibition assay, SHV-5 (cefotaxime substrate)", "assay_type": "biochemical", "in_short": "(§1)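 Native untagged enzymes expressed in E. coli BL21(DE3), purified by cation exchange and gel filtration. Inhibitor preincubated with enzyme 15 min at 37 °C; hydrolysis followed by absorbance: imipenem at 300 nm for KPC-2, cefotaxime at 260 nm for SHV-5. IC50 as concentration halving initial hydrolysis rate versus inhibitor-free wells.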"}, "[1]": {"system": "K. pneumoniae producing the Class D carbapenemase OXA-48", "assay": "Broth microdilution MIC assay with meropenem, K. pneumoniae OXA-48", "assay_type": "cell-based", "conditions": "Fixed Mero (meropenem) 4 μg/mL; K. p. 11978 OXA-48", "in_short": "(§2)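 Potentiation format: the β-lactam was held at 4 μg/ml while the test compound was serially diluted, and growth was scored visually after overnight (16-20 h) incubation at 37° C.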"}, "[2]": {"system": "E. coli expressing the Class A Extended Spectrum Beta-Lactamase (ESBL) CTX-M-15", "assay": "Broth microdilution MIC assay with ceftazidime, E. coli CTX-M-15", "assay_type": "cell-based", "conditions": "Fixed CAZ (ceftazidime) 4 μg/mL; E. coli ESBL4 CTX-M-15", "in_short": "as §2"}, "AmpC": {"molecular_target": "T2, AmpC (Enterobacter cloacae, UniProt P05364)", "T2 construct": "made in house; host or cells: E. coli BL21(DE3)", "T2 sequence (P05364 21-381)": "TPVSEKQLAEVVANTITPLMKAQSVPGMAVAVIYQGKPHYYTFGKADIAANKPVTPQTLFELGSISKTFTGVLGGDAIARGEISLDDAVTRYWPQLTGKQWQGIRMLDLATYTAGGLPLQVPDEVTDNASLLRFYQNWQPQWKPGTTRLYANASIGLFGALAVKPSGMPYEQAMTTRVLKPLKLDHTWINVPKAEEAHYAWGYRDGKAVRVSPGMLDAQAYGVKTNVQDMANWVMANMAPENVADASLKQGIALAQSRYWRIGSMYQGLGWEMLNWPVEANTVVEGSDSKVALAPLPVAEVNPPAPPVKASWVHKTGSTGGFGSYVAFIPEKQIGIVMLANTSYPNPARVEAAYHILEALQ", "assay": "β-lactamase enzyme inhibition assay, p99 AmpC (nitrocefin substrate)", "assay_type": "biochemical", "in_short": "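Native untagged enzymes expressed in E. coli BL21(DE3), purified by cation exchange and gel filtration. Inhibitor preincubated with enzyme 15 min at 37 °C; hydrolysis followed by absorbance. IC50 as concentration halving initial hydrolysis rate versus inhibitor-free wells.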"}, "KPC-2": {"molecular_target": "T3, KPC-2 (Klebsiella pneumoniae, UniProt Q9F663)", "T3 construct": "made in house; host or cells: E. coli BL21(DE3)", "T3 sequence (Q9F663 25-293, looked up)": "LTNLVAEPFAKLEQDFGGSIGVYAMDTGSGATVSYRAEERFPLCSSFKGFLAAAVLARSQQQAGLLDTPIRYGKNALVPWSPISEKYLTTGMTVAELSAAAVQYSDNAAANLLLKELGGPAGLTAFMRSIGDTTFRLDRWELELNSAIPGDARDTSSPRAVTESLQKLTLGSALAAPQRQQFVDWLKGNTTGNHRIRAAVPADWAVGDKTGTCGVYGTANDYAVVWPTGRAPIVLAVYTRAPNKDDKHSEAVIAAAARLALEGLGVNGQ", "assay": "β-lactamase enzyme inhibition assay, KPC-2 (imipenem substrate)", "assay_type": "biochemical", "conditions": "Class A; imipenem substrate, 300 nm; read-out: KPC-2", "in_short": "as §1"}, "OXA-48": {"molecular_target": "OXA-48 (UniProt Q6XEC0)", "assay": "β-lactamase enzyme inhibition assay, Class D oxacillinase", "assay_type": "biochemical", "conditions": "read-out: OXA-48"}, "[3]": {"system": "P. aeruginosa expressing the Class B carbapenemase VIM-2", "assay": "Broth microdilution MIC assay with meropenem, P. aeruginosa VIM-2", "assay_type": "cell-based", "conditions": "Fixed Mero (meropenem) 4 μg/mL; P. aerug. 2775 VIM-2", "in_short": "as §2"}, "VIM-2": {"molecular_target": "T4, VIM-2 (Escherichia coli, UniProt Q5U7L7)", "T4 construct": "made in house; host or cells: E. coli BL21(DE3)", "assay": "β-lactamase enzyme inhibition assay, VIM-2 (nitrocefin substrate)", "assay_type": "biochemical", "conditions": "Class B; nitrocefin substrate, 486 nm; read-out: VIM-2", "in_short": "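IC50 reflects the inhibitor concentration cutting the initial nitrocefin hydrolysis rate by half, compared with control wells lacking inhibitor. Substrate was used at 100 μM final after a 15 min, 37 °C enzyme–inhibitor preincubation.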"}, "[4]": {"system": "K. pneumoniae expressing the Class A carbapenemase KPC-2", "assay": "Broth microdilution MIC assay with meropenem, K. pneumoniae KPC-2", "assay_type": "cell-based", "conditions": "Fixed Mero (meropenem) 4 μg/mL; K. p. 156319 KPC-3", "in_short": "as §2"}, "[5]": {"system": "K. pneumoniae expressing the class A carbapenemase KPC-2 and the class B carbapenemase VIM-4", "assay": "Broth microdilution MIC assay with meropenem, K. pneumoniae KPC-2 and VIM-4", "assay_type": "cell-based", "conditions": "Fixed Mero (meropenem) 4 μg/mL; K. p. A-1797 KPC-2 VIM-4", "in_short": "as §2"}, "[6]": {"system": "E. cloacae expressing the Class C P99", "assay": "Broth microdilution MIC assay with ceftazidime, E. cloacae P99", "assay_type": "cell-based", "conditions": "Fixed CAZ (ceftazidime) 4 μg/mL; E. cl. 144200 p99 AmpC", "in_short": "as §2"}},
  "data": [
    {"smiles": "N=CNCc1cn(CC(=O)N[C@H]2Cc3cccc(C(=O)O)c3OB2O)nn1", "note": "[Example 22, (R)-3-(2-(4-(formimidamidomethyl)-1H-1,2,3-triazol-1-yl)acetamido)-2-hydroxy-3,4-dihydro-2H-benzo[e][1,2]oxaborinine-8-carboxylic acid]", "values": [
      {"measurement": "IC50", "setting": "SHV-5", "value": "0.1 to 1", "unit": "µM"},
      {"measurement": "MIC (μg/mL) of Exemplary Compounds in presence of fixed β-lactams: K. p. 11978 OXA-48", "setting": "[1]", "value": "B (B represents an MIC between 1 and 16 μg/mL inclusive)"},
      {"measurement": "MIC (μg/mL) of Exemplary Compounds in presence of fixed β-lactams: E. coli ESBL4 CTX-M-15", "setting": "[2]", "value": "C (C represents an MIC of <1 μg/mL)"},
      {"measurement": "IC50", "setting": "AmpC", "value": "< 0.1", "unit": "µM"},
      {"measurement": "IC50", "setting": "KPC-2", "value": "0.1 to 1", "unit": "µM"},
      {"measurement": "IC50", "setting": "OXA-48", "value": "1 to 10", "unit": "µM"},
      {"measurement": "MIC (μg/mL) of Exemplary Compounds in presence of fixed β-lactams: P. aerug. 2775 VIM-2", "setting": "[3]", "value": "C (C represents an MIC of <1 μg/mL)"},
      {"measurement": "IC50", "setting": "VIM-2", "value": "0.1 to 1", "unit": "µM"},
      {"measurement": "MIC (μg/mL) of Exemplary Compounds in presence of fixed β-lactams: K. p. 156319 KPC-3", "setting": "[4]", "value": "C (C represents an MIC of <1 μg/mL)"},
      {"measurement": "MIC (μg/mL) of Exemplary Compounds in presence of fixed β-lactams: K. p. A-1797 KPC-2 VIM-4", "setting": "[5]", "value": "B (B represents an MIC between 1 and 16 μg/mL inclusive)"},
      {"measurement": "MIC (μg/mL) of Exemplary Compounds in presence of fixed β-lactams: E. cl. 144200 p99 AmpC", "setting": "[6]", "value": "C (C represents an MIC of <1 μg/mL)"}
    ]},
    {"smiles": "O=C(Cc1nnn(CC2CCNCC2)n1)N[C@H]1Cc2cccc(C(=O)O)c2OB1O", "note": "[Example 99, (R)-2-hydroxy-3-(2-(2-(piperidin-4-ylmethyl)-2H-tetrazol-5-yl)acetamido)-3,4-dihydro-2H-benzo[e][1,2]oxaborinine-8-carboxylic acid]", "values": [
      {"measurement": "IC50", "setting": "SHV-5", "value": "< 0.1", "unit": "µM"},
      {"measurement": "MIC (μg/mL) of Exemplary Compounds in presence of fixed β-lactams: K. p. 11978 OXA-48", "setting": "[1]", "value": "B (B represents an MIC between 1 and 16 μg/mL inclusive)"},
      {"measurement": "MIC (μg/mL) of Exemplary Compounds in presence of fixed β-lactams: E. coli ESBL4 CTX-M-15", "setting": "[2]", "value": "C (C represents an MIC of <1 μg/mL)"},
      {"measurement": "IC50", "setting": "AmpC", "value": "< 0.1", "unit": "µM"},
      {"measurement": "IC50", "setting": "KPC-2", "value": "< 0.1", "unit": "µM"},
      {"measurement": "IC50", "setting": "OXA-48", "value": "0.1 to 1", "unit": "µM"},
      {"measurement": "MIC (μg/mL) of Exemplary Compounds in presence of fixed β-lactams: P. aerug. 2775 VIM-2", "setting": "[3]", "value": "C (C represents an MIC of <1 μg/mL)"},
      {"measurement": "IC50", "setting": "VIM-2", "value": "0.1 to 1", "unit": "µM"},
      {"measurement": "MIC (μg/mL) of Exemplary Compounds in presence of fixed β-lactams: K. p. 156319 KPC-3", "setting": "[4]", "value": "C (C represents an MIC of <1 μg/mL)"},
      {"measurement": "MIC (μg/mL) of Exemplary Compounds in presence of fixed β-lactams: K. p. A-1797 KPC-2 VIM-4", "setting": "[5]", "value": "B (B represents an MIC between 1 and 16 μg/mL inclusive)"},
      {"measurement": "MIC (μg/mL) of Exemplary Compounds in presence of fixed β-lactams: E. cl. 144200 p99 AmpC", "setting": "[6]", "value": "C (C represents an MIC of <1 μg/mL)"}
    ]},
    {"smiles": "O=C(Cn1cc(-c2cccs2)nn1)N[C@H]1Cc2cccc(C(=O)O)c2OB1O", "note": "[Example 28, (R)-2-hydroxy-3-(2-(4-(thiophen-2-yl)-1H-1,2,3-triazol-1-yl)acetamido)-3,4-dihydro-2H-benzo[e][1,2]oxaborinine-8-carboxylic acid]", "values": [
      {"measurement": "IC50", "setting": "SHV-5", "value": "< 0.1", "unit": "µM"},
      {"measurement": "MIC (μg/mL) of Exemplary Compounds in presence of fixed β-lactams: K. p. 11978 OXA-48", "setting": "[1]", "value": "B (B represents an MIC between 1 and 16 μg/mL inclusive)"},
      {"measurement": "MIC (μg/mL) of Exemplary Compounds in presence of fixed β-lactams: E. coli ESBL4 CTX-M-15", "setting": "[2]", "value": "C (C represents an MIC of <1 μg/mL)"},
      {"measurement": "IC50", "setting": "AmpC", "value": "< 0.1", "unit": "µM"},
      {"measurement": "IC50", "setting": "KPC-2", "value": "< 0.1", "unit": "µM"},
      {"measurement": "IC50", "setting": "OXA-48", "value": "0.1 to 1", "unit": "µM"},
      {"measurement": "MIC (μg/mL) of Exemplary Compounds in presence of fixed β-lactams: P. aerug. 2775 VIM-2", "setting": "[3]", "value": "B (B represents an MIC between 1 and 16 μg/mL inclusive)"},
      {"measurement": "IC50", "setting": "VIM-2", "value": "0.1 to 1", "unit": "µM"},
      {"measurement": "MIC (μg/mL) of Exemplary Compounds in presence of fixed β-lactams: K. p. 156319 KPC-3", "setting": "[4]", "value": "B (B represents an MIC between 1 and 16 μg/mL inclusive)"},
      {"measurement": "MIC (μg/mL) of Exemplary Compounds in presence of fixed β-lactams: K. p. A-1797 KPC-2 VIM-4", "setting": "[5]", "value": "A (A represents an MIC>16 μg/mL)"},
      {"measurement": "MIC (μg/mL) of Exemplary Compounds in presence of fixed β-lactams: E. cl. 144200 p99 AmpC", "setting": "[6]", "value": "C (C represents an MIC of <1 μg/mL)"}
    ]},
    {"smiles": "NOCC(=O)NCc1cn(CC(=O)N[C@H]2Cc3cccc(C(=O)O)c3OB2O)nn1", "note": "[Example 77, (R)-3-(2-(4-((2-(aminooxy)acetamido)methyl)-1H-1,2,3-triazol-1-yl)acetamido)-2-hydroxy-3,4-dihydro-2H-benzo[e][1,2]oxaborinine-8-carboxylic acid]", "values": [
      {"measurement": "IC50", "setting": "SHV-5", "value": "< 0.1", "unit": "µM"},
      {"measurement": "MIC (μg/mL) of Exemplary Compounds in presence of fixed β-lactams: K. p. 11978 OXA-48", "setting": "[1]", "value": "B (B represents an MIC between 1 and 16 μg/mL inclusive)"},
      {"measurement": "MIC (μg/mL) of Exemplary Compounds in presence of fixed β-lactams: E. coli ESBL4 CTX-M-15", "setting": "[2]", "value": "C (C represents an MIC of <1 μg/mL)"},
      {"measurement": "IC50", "setting": "AmpC", "value": "< 0.1", "unit": "µM"},
      {"measurement": "IC50", "setting": "KPC-2", "value": "< 0.1", "unit": "µM"},
      {"measurement": "IC50", "setting": "OXA-48", "value": "0.1 to 1", "unit": "µM"},
      {"measurement": "MIC (μg/mL) of Exemplary Compounds in presence of fixed β-lactams: P. aerug. 2775 VIM-2", "setting": "[3]", "value": "C (C represents an MIC of <1 μg/mL)"},
      {"measurement": "IC50", "setting": "VIM-2", "value": "0.1 to 1", "unit": "µM"},
      {"measurement": "MIC (μg/mL) of Exemplary Compounds in presence of fixed β-lactams: K. p. 156319 KPC-3", "setting": "[4]", "value": "C (C represents an MIC of <1 μg/mL)"},
      {"measurement": "MIC (μg/mL) of Exemplary Compounds in presence of fixed β-lactams: K. p. A-1797 KPC-2 VIM-4", "setting": "[5]", "value": "B (B represents an MIC between 1 and 16 μg/mL inclusive)"},
      {"measurement": "MIC (μg/mL) of Exemplary Compounds in presence of fixed β-lactams: E. cl. 144200 p99 AmpC", "setting": "[6]", "value": "C (C represents an MIC of <1 μg/mL)"}
    ]}
  ]
}
